Reference: ChEMBL document CHEMBL1135604, “Geometry-affinity relationships of the selective serotonin receptor ligand 9-(aminomethyl)-9,10-dihydroanthracene” (J Med Chem, 2002)

Molecular target: 5-hydroxytryptamine receptor 2A (Rattus norvegicus) (UniProt P14842)
Experiment: Binding affinity was performed using [3H]ketanserin as the radioligand and stably transfected NIH3T3 cells expressing the 5-hydroxytryptamine 2A receptor (GF-62 cells).

Chain of 5-hydroxytryptamine receptor 2A (Rattus norvegicus) (P14842 whole entry, looked up): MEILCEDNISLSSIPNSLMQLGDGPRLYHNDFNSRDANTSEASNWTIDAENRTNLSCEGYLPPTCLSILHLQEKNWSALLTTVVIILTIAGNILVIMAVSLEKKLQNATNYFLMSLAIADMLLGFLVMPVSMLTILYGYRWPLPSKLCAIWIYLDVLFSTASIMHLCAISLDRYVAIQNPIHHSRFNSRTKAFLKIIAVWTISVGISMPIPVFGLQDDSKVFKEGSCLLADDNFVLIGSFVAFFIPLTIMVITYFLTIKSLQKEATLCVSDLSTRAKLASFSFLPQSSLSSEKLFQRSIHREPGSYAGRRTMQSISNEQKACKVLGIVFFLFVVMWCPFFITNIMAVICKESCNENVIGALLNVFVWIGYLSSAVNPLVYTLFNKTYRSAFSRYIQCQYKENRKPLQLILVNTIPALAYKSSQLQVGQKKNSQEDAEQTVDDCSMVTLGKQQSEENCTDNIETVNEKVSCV

## NCC12CC(c3ccccc31)c1ccccc12
  Ki: 6780 nM

## NCCc1ccccc1Cc1ccccc1
  Ki: 1810 nM

## CC1(C)c2ccccc2C(CN)c2ccccc21
  Ki: 330 nM

## NCC1CC2c3ccccc3C1c1ccccc12 (centres undefined)
  Ki: 9530 nM

## NC1CC2c3ccccc3C1c1ccccc12 (centres undefined)
  Ki: > 10000 nM

## NCC1c2ccccc2CCc2ccccc21
  Ki: 112 nM

## c1ccc2c(c1)Cc1cccc3c1C2CNC3 (centres undefined)
  Ki: 296 nM

## CC(N)C1c2ccccc2Cc2ccccc21 (centres undefined)
  Ki: 193 nM

## c1ccc2c(c1)C1c3ccccc3C2C2NC12 (centres undefined)
  Ki: > 10000 nM

## NCc1c2ccccc2cc2ccccc12
  Ki: 2300 nM

## CC1(CN)c2ccccc2Cc2ccccc21
  Ki: 65 nM

## NCC1Cc2ccccc2-c2ccccc21 (centres undefined)
  Ki: 711 nM

## NCC12CCC(c3ccccc31)c1ccccc12
  Ki: 770 nM

## NCC1CCCc2ccccc21 (centres undefined)
  Ki: > 10000 nM
